Data published in ChEMBL document CHEMBL3885861, “Open TG-GATES”.

Species on record: Rattus norvegicus
Assay: Open TG-GATES - Regimen: Daily Repeat
Type: toxicity, organism-based, Sprague-Dawley
Parameters: regimen Daily Repeat, gender Male, age 6 weeks
Conditions: in vivo, po, 100 mg/kg, route gavage, dose level Middle; for APTT / Bas / Eos / Fbg / Hb / Ht / Lym / MCH / MCHC / MCV / Mono / Neu / PT / Plat / RBC / Ret / WBC: tissue Blood; for KIDNEY_L / KIDNEY_R / KIDNEY_TOTAL: tissue Kidney; for LIVER: tissue Liver; for A/G / ALP / ALT / AST / BUN / CRE / Ca / Cl / DBIL / GLC / IP / K / LDH / Na / PL / RALB / TBIL / TC / TG / TP / gamma-GTP: tissue Plasma

In the case of `Brc1ccccc1` [BROMOBENZENE], the TERMINAL_BW (72 h, time 3 day) is reported as 207.5 g, the APTT (72 h, time 3 day) is reported as 14.7 s and the Bas (72 h, time 3 day) is reported as 0.2%. It also gave an Eos (72 h, time 3 day) of 1%, a Fbg (72 h, time 3 day) of 300.2 mg/dL and a Hb (72 h, time 3 day) of 12.9 g/dL. It also gave a Ht (72 h, time 3 day) of 38.4%, a Lym (72 h, time 3 day) of 74.2% and an MCH (72 h, time 3 day) of 20.5 pg. It also gave an MCHC (72 h, time 3 day) of 33.5%, an MCV (72 h, time 3 day) of 61.1 fL and a Mono (72 h, time 3 day) of 3.5%. It also gave a Neu (72 h, time 3 day) of 20.5%, a PT (72 h, time 3 day) of 11.8 s and a Plat (72 h, time 3 day) of 118.8 x10_4/uL. For the same molecule, the RBC (72 h, time 3 day) was 629 x10_4/ul, the Ret (72 h, time 3 day) was 6.2% and the WBC (72 h, time 3 day) was 95.6 x10_2/uL. For the same molecule, the KIDNEY_L (72 h, time 3 day) was 0.9 g, the KIDNEY_R (72 h, time 3 day) was 0.9 g and the KIDNEY_TOTAL (72 h, time 3 day) was 1.8 g. The LIVER (72 h, time 3 day) was 11.6 g, the A/G (72 h, time 3 day) was 0.9 and the ALP (72 h, time 3 day) was 1811.5 IU/L. For the same molecule, the ALT (72 h, time 3 day) was 56.5 IU/L, the AST (72 h, time 3 day) was 78.5 IU/L and the BUN (72 h, time 3 day) was 13 mg/dL. For the same molecule, the CRE (72 h, time 3 day) was 0.2 mg/dL, the Ca (72 h, time 3 day) was 10.4 mg/dL and the Cl (72 h, time 3 day) was 106 meq/L. It also gave a DBIL (72 h, time 3 day) of 0.015 mg/dL, a GLC (72 h, time 3 day) of 179.8 mg/dL and an IP (72 h, time 3 day) of 6.4 mg/dL. It also gave a K (72 h, time 3 day) of 4.1 meq/L, an LDH (72 h, time 3 day) of 101.8 IU/L and a Na (72 h, time 3 day) of 142.2 meq/L. The PL (72 h, time 3 day) was 166.8 mg/dL, the RALB (72 h, time 3 day) was 2.7 g/dL and the TBIL (72 h, time 3 day) was 0.0575 mg/dL. It also gave a TC (72 h, time 3 day) of 88 mg/dL, a TG (72 h, time 3 day) of 66 mg/dL and a TP (72 h, time 3 day) of 5.7 g/dL. The gamma-GTP (72 h, time 3 day) was 1.2 IU/L, the TERMINAL_BW ([…], time 7 day) was 245.7 g and the TERMINAL_BW ([…], time 14 day) was 288.5 g. It also gave a TERMINAL_BW ([…], time 28 day) of 381.1 g, an APTT ([…], time 7 day) of 13.4 s and a Bas ([…], time 7 day) of 0%. The Eos ([…], time 7 day) was 1%, the Fbg ([…], time 7 day) was 317.4 mg/dL and the Hb ([…], time 7 day) was 13.3 g/dL. It also gave a Ht ([…], time 7 day) of 39.3%, a Lym ([…], time 7 day) of 75.8% and an MCH ([…], time 7 day) of 21.2 pg. The MCHC ([…], time 7 day) was 33.9%, the MCV ([…], time 7 day) was 62.5 fL and the Mono ([…], time 7 day) was 3%. The Neu ([…], time 7 day) was 19.8%, the PT ([…], time 7 day) was 12.2 s and the Plat ([…], time 7 day) was 112.7 x10_4/uL. For the same molecule, the RBC ([…], time 7 day) was 629 x10_4/ul, the Ret ([…], time 7 day) was 6.9% and the WBC ([…], time 7 day) was 98.3 x10_2/uL. The APTT ([…], time 14 day) was 16.8 s, the Bas ([…], time 14 day) was 0% and the Eos ([…], time 14 day) was 1%. The Fbg ([…], time 14 day) was 326.4 mg/dL, the Hb ([…], time 14 day) was 14.2 g/dL and the Ht ([…], time 14 day) was 40.9%. It also gave a Lym ([…], time 14 day) of 78%, an MCH ([…], time 14 day) of 20.7 pg and an MCHC ([…], time 14 day) of 34.7%. The MCV ([…], time 14 day) was 59.8 fL, the Mono ([…], time 14 day) was 2.8% and the Neu ([…], time 14 day) was 18.2%. It also gave a PT ([…], time 14 day) of 11.9 s, a Plat ([…], time 14 day) of 113.2 x10_4/uL and an RBC ([…], time 14 day) of 685.4 x10_4/ul. It also gave a Ret ([…], time 14 day) of 4.6%, a WBC ([…], time 14 day) of 74.5 x10_2/uL and an APTT ([…], time 28 day) of 17.1 s. It also gave a Bas ([…], time 28 day) of 0%, an Eos ([…], time 28 day) of 1% and a Fbg ([…], time 28 day) of 304.8 mg/dL. For the same molecule, the Hb ([…], time 28 day) was 14.6 g/dL, the Ht ([…], time 28 day) was 41.5% and the Lym ([…], time 28 day) was 73.8%. For the same molecule, the MCH ([…], time 28 day) was 19.3 pg, the MCHC ([…], time 28 day) was 35.1% and the MCV ([…], time 28 day) was 55.1 fL. The Mono ([…], time 28 day) was 3%, the Neu ([…], time 28 day) was 21.2% and the PT ([…], time 28 day) was 12.9 s. For the same molecule, the Plat ([…], time 28 day) was 109.2 x10_4/uL, the RBC ([…], time 28 day) was 754.6 x10_4/ul and the Ret ([…], time 28 day) was 2.6%. For the same molecule, the WBC ([…], time 28 day) was 103.2 x10_2/uL, the KIDNEY_L ([…], time 7 day) was 1.1 g and the KIDNEY_R ([…], time 7 day) was 1.1 g. It also gave a KIDNEY_TOTAL ([…], time 7 day) of 2.2 g, a KIDNEY_L ([…], time 14 day) of 1.1 g and a KIDNEY_R ([…], time 14 day) of 1.1 g. The KIDNEY_TOTAL ([…], time 14 day) was 2.2 g, the KIDNEY_L ([…], time 28 day) was 1.4 g and the KIDNEY_R ([…], time 28 day) was 1.4 g. For the same molecule, the KIDNEY_TOTAL ([…], time 28 day) was 2.7 g, the LIVER ([…], time 7 day) was 12.8 g and the LIVER ([…], time 14 day) was 13.7 g. The LIVER ([…], time 28 day) was 17 g, the A/G ([…], time 7 day) was 0.8 and the ALP ([…], time 7 day) was 1614.4 IU/L. For the same molecule, the ALT ([…], time 7 day) was 43.4 IU/L, the AST ([…], time 7 day) was 65 IU/L and the BUN ([…], time 7 day) was 14.8 mg/dL. It also gave a CRE ([…], time 7 day) of 0.2 mg/dL, a Ca ([…], time 7 day) of 11.1 mg/dL and a Cl ([…], time 7 day) of 105.2 meq/L. It also gave a DBIL ([…], time 7 day) of 0.014 mg/dL, a GLC ([…], time 7 day) of 193.2 mg/dL and an IP ([…], time 7 day) of 7.1 mg/dL. It also gave a K ([…], time 7 day) of 4 meq/L, an LDH ([…], time 7 day) of 99.8 IU/L and a Na ([…], time 7 day) of 143 meq/L. The PL ([…], time 7 day) was 149 mg/dL, the RALB ([…], time 7 day) was 2.7 g/dL and the TBIL ([…], time 7 day) was 0.048 mg/dL. It also gave a TC ([…], time 7 day) of 71.6 mg/dL, a TG ([…], time 7 day) of 84.8 mg/dL and a TP ([…], time 7 day) of 5.9 g/dL. For the same molecule, the gamma-GTP ([…], time 7 day) was 1 IU/L, the A/G ([…], time 14 day) was 0.8 and the ALP ([…], time 14 day) was 1557.8 IU/L. The ALT ([…], time 14 day) was 39.6 IU/L, the AST ([…], time 14 day) was 63.4 IU/L and the BUN ([…], time 14 day) was 14.6 mg/dL. The CRE ([…], time 14 day) was 0.2 mg/dL, the Ca ([…], time 14 day) was 10.9 mg/dL and the Cl ([…], time 14 day) was 107 meq/L. The DBIL ([…], time 14 day) was 0.008 mg/dL, the GLC ([…], time 14 day) was 185.6 mg/dL and the IP ([…], time 14 day) was 5.9 mg/dL. It also gave a K ([…], time 14 day) of 4 meq/L, an LDH ([…], time 14 day) of 56.6 IU/L and a Na ([…], time 14 day) of 143.6 meq/L. For the same molecule, the PL ([…], time 14 day) was 150.4 mg/dL, the RALB ([…], time 14 day) was 2.8 g/dL and the TBIL ([…], time 14 day) was 0.046 mg/dL. The TC ([…], time 14 day) was 71.2 mg/dL, the TG ([…], time 14 day) was 100.6 mg/dL and the TP ([…], time 14 day) was 6.1 g/dL. The gamma-GTP ([…], time 14 day) was 1 IU/L, the A/G ([…], time 28 day) was 0.8 and the ALP ([…], time 28 day) was 1105.2 IU/L. The ALT ([…], time 28 day) was 40.8 IU/L, the AST ([…], time 28 day) was 61.8 IU/L and the BUN ([…], time 28 day) was 15.4 mg/dL. For the same molecule, the CRE ([…], time 28 day) was 0.3 mg/dL, the Ca ([…], time 28 day) was 10.6 mg/dL and the Cl ([…], time 28 day) was 105.6 meq/L. For the same molecule, the DBIL ([…], time 28 day) was 0.016 mg/dL, the GLC ([…], time 28 day) was 198.8 mg/dL and the IP ([…], time 28 day) was 5.8 mg/dL. It also gave a K ([…], time 28 day) of 3.9 meq/L, an LDH ([…], time 28 day) of 86.2 IU/L and a Na ([…], time 28 day) of 142.4 meq/L. It also gave a PL ([…], time 28 day) of 140.8 mg/dL, an RALB ([…], time 28 day) of 2.8 g/dL and a TBIL ([…], time 28 day) of 0.04 mg/dL. It also gave a TC ([…], time 28 day) of 72.8 mg/dL, a TG ([…], time 28 day) of 108.8 mg/dL and a TP ([…], time 28 day) of 6.3 g/dL. The gamma-GTP ([…], time 28 day) was 1 IU/L.
